# Results from patent US20100184673A1, “USE OF PARATHYROID HORMONE ( 1-34 ) AS ANTI-HIV AGENT” (priority 2007, published 2010).
# What was measured:
# HepG2-2.2.15 cells = experiment: Cell viability of HepG2-2.2.15 cells (dye uptake assay); format: cell-based; conditions: peptide 10 micrograms per ml
# Protocol: (§1) HepG2-2.2.15 cells were plated in 96-well microtiter plates. After 16-24 hours the confluent monolayer of HepG2-2.2.15 cells was washed and the medium was replaced with complete medium containing test peptide—10 micrograms per ml—in duplicate. Lamivudine (3TC) was used as the positive control, while media alone was added to the cells as a negative control (virus control). Three days later the culture medium was replaced with fresh medium containing the peptide. Six days following the initial administration of the peptide, the cell culture supernatants was collected, treated with pronase and DNAse and then used in a real-time quantitative TaqMan PCR assay. The PCR-amplified HBV DNA was detected in real-time by monitoring increases in fluorescence signals that result from the exonucleolytic degradation of a quenched fluorescence probe molecule that hybridizes to the mplified HBV DNA. For each PCR amplification, a standard curve was simultaneously generated using dilutions of purified HBV DNA. Antiviral activity was calculated from the reduction in HBV DNA levels (% virus control). A novel dye uptake assay was then employed to measure cell viability, which is used to calculate toxicity (% cell control).
# HIV-1IIIB = experiment: HIV-1 antiviral assay (CPE reduction) in CEM-SS cells, MTS readout; conditions: for antiviral activity of positive control compounds (in words): assay validity statement; for % CPE reduction in HIV-1 infected CEM-SS cells: peptide 10 micrograms per ml, 6 days post-infection, MTS
# MRC-5 cells = experiment: in vitro; format: cell-based; conditions: human, 6 days
# HCMV strain AD169 = experiment: HCMV plaque reduction assay in MRC-5 cells; conditions: for % plaque reduction: HCMV in MRC-5 cells, peptide 10 micrograms per ml, 7-10 days
# [1] = test system: hepatitis B virus (HBV) ayw strain; experiment: HBV replication assay in HepG2-2.2.15 cells (TaqMan PCR of secreted HBV DNA); format: cell-based; conditions: peptide 10 micrograms per ml; six days; HBV DNA in supernatant
# Excerpt: HepG2-2.2.15 is a stable cell line containing the hepatitis B virus (HBV) ayw strain genome (ATCC Cat. No. CRL-11997). Antiviral compounds blocking any late step of viral replication such as transcription, translation, pregenome encapsidation, reverse transcription, particle assembly and release can be identified and characterized using this cell line. In this assay, an active compound will reduce the production of secreted HBV from cells, measured by utilizing real time quantitative PCR (TaqMan) assay to directly and accurately measure HBV DNA copies.
# HepG2-2.2.15 cells were plated in 96-well microtiter plates. After 16-24 hours the confluent monolayer of HepG2-2.2.15 cells was washed and the medium was replaced with complete medium containing test peptide—10 micrograms per ml—in duplicate. […] Six days following the initial administration of the peptide, the cell culture supernatants was collected, treated with pronase and DNAse and then used in a real-time quantitative TaqMan PCR assay. The PCR-amplified HBV DNA was detected in real-time by monitoring increases in fluorescence signals that result from the exonucleolytic degradation of a quenched fluorescence probe molecule that hybridizes to the mplified HBV DNA. […] Antiviral activity was calculated from the reduction in HBV DNA levels (% virus control). […]
# [2] = Cell viability of HepG2-2.2.15 cells (dye uptake assay); format: cell-based; conditions: human, peptide 10 micrograms per ml
# Protocol: as §1
# in vitro [3] = format: cell-based; conditions: human, MRC-5 cells
# Pseudomonas aeruginosa = format: cell-based; conditions: 5 micrograms per ml
# Streptococcus pneumoniae = format: cell-based; conditions: 5 micrograms per ml
# A549 cells [4] = experiment: Propidium iodide cell cycle assay; format: cell-based, Human; conditions: 24 hours, peptide 10 micrograms per ml, FACS
# Excerpt: Human A549 cells (carcinomic human alveolar basal epithelial cells) were utilized in the experiments employing the Propidium iodide cell cycle assay. The eukaryotic cell cycle is a series of events that take place in a cell leading to its replication. The regulation of the cell cycle involves steps crucial to the cell, including detecting and repairing genetic damage, and provision of various checks to prevent uncontrolled cell division. The molecular events that control the cell cycle are ordered and directional; that is, each process occurs in a sequential fashion.
# Propidium iodide is an intercalating agent and a fluorescent molecule that can be used to stain DNA. Cells were incubated for 24 hours with test peptide—10 micrograms per ml—or left untreated. After that cells were trypsinized, suspended in medium+10% FCS, centrifuged (1000 rpm, 5 min), and the cell pellet resuspended in PBS (1 ml). The cells were pipetted into 2.5 ml absolute EtOH (final concentration approx. 70%) and incubated on ice for 15 min. Thereafter, cells were pelleted at 1500 rpm for 5 min and resuspended in Propidium iodide solution in PBS. After incubation for 40 min at 37° C., cells were analyzed in the FACS.
# [5] = test system: Human Peripheral Blood Mononuclear Cells (PBMC); experiment: T cell proliferation assay (PHA, 3H-thymidine); format: cell-based; conditions: peptide 10 micrograms per ml
# Protocol: (§2) Human Peripheral Blood Mononuclear Cells (PBMC) were obtained from normal human donors. The T cell proliferation was induced by stimulation of the cells with the T cell mitogen phytohemagglutinin (PHA), either in the absence (positive proliferation control), or in the presence of test peptide—10 micrograms per ml—to examine their effects on the T cell proliferating response. 10^5/well PBMC were plated in 96-well microtiter plates and assayed in duplicate with the peptide. Cell cultures were incubated at 37° C. for 3 days in a 5% CO2 incubator and were thereafter pulsed with 1microCi/well ^3H-thymidine for additional 12 hours of culture. At the end of incubation time, the plates were harvested and the cells counted by liquid scintillation for the incorporation of ^3H-thymidine as a measure of T cell proliferation.
# [6] = test system: Human Peripheral Blood Mononuclear Cells (PBMC); experiment: B cell proliferation assay (SAC plus Interleukin-2, 3H-thymidine); format: cell-based; conditions: peptide 10 micrograms per ml
# Protocol: as §2, with “The B” for “The T”, “the B” for “the T”, “mitogen Staphylococcus aureus Cowans I (SAC) plus Interleukin-2,” for “mitogen phytohemagglutinin (PHA),”, “cell” for “cell proliferating”, “of B” for “of T”
# A549 cells [7] = experiment: Apoptosis induction assay (Annexin-5); format: cell-based, Human; conditions: 24 hours, peptide 10 micrograms per ml
# Excerpt: Human A549 cells (carcinomic human alveolar basal epithelial cells) were utilized in the experiments employing the Annexin-5 apoptosis assay. Annexin-5 is a member of a highly conserved protein family that binds acidic phospholipids in a calcium-dependent manner. […] Phosphatidylserine is translocated from the inner side of the plasma membrane to the outer layer when cells undergo death by apoptosis or cell necrosis and serves as a signal by which cell destined for death are recognized by phagocytes. Test peptide—10 micrograms per ml—were exposed for 24 hours to the A549 cells before they were analyzed for signs of apoptosis.
# A549 cells [8] = experiment: Apoptosis prevention assay (C2 ceramide, Annexin-5); format: cell-based, Human; conditions: 30 min pretreatment, peptide 10 micrograms per ml
# Excerpt: Human A549 cells (carcinomic human alveolar basal epithelial cells) were utilized in the experiments employing the Annexin-5 apoptosis assay. Annexin-5 is a member of a highly conserved protein family that binds acidic phospholipids in a calcium-dependent manner. […] Phosphatidylserine is translocated from the inner side of the plasma membrane to the outer layer when cells undergo death by apoptosis or cell necrosis and serves as a signal by which cell destined for death are recognized by phagocytes. A549 cells were pretreated for 30 min with test peptide—10 micrograms per ml—followed by the exposure to C2 ceramide. Ceramide mediates cell apoptosis through the activation of the mitogen activating protein kinase (MAPK) and the stress activated kinase (JNK/SAPK). C2 ceramide is a synthetic, membrane soluble analog of ceramide.
# spleen cells = experiment: Th1/Th2 cytokine profiling assay (Ovalbumin restimulated spleen cells, CBA kit); format: cell-based, Balb/c mice; conditions: peptide 10 micrograms per ml; Ovalbumin restimulation; 72 hours
# Excerpt: The Balb/c mice (originated in 1923, it is a popular strain and is used in many different research disciplines. Also classified as an inbred from the production of 20 or more successive brother-sister matings, the Balb/c mouse is albino and small in size) were immunized on Days 1, 15, and 29 with Ovalbumin (Ovalbumin is the main protein found in egg white, commonly used to stimulate an immunological reaction in test animals) in PBS (5 micrograms/injection). On day 50, spleens of the mice were harvested (3 weeks after last boost with Ovalbumin). […] Thereafter, additional Ovalbumin was added to the cells at 10 micrograms/ml for in vitro restimulation of the cells. 72 hours later, cell supernatants were harvested and assayed using the Becton Dickinson Mouse Th1/Th2 Cytokine CBA Kit. This kit can be used to measure Interleukin-2 (IL-2), Interleukin-4 (IL-4), Interleukin-5 (IL-5), Interferon-γ (IFN-γ), and Tumor Necrosis Factor-α (TNF-α) protein levels in a single sample. The kit performance has been optimized for analysis of physiologically relevant concentrations (pg/ml levels) of specific cytokine proteins in tissue culture supernatants and serum samples.
# [9] = test system: macrophages prepared from PBMC; experiment: TNF alpha production assay (LPS-stimulated macrophages, ELISA); format: cell-based, Human; conditions: peptide 10 micrograms per ml, lipopolysaccharide 200 ng/ml, overnight
# Protocol: Human Peripheral Blood Mononuclear Cells (PBMC) were obtained from normal human donors. The macrophages were prepared by adherence of PBMC to the plastic wells of the plates. […] Not stimulated macrophages served as negative background control.
# After overnight incubation, supernatants from the control and LPS-stimulated cultures were harvested and assayed for TNF alpha production employing a TNF alpha specific ELISA.
# [10] = test system: Primary Human endothelial cells (HUVEC); experiment: Endothelial cell migration assay; format: cell-based; conditions: peptide 10 micrograms per ml, 22 hours
# HUVEC = experiment: Endothelial tube formation assay; format: cell-based, Human; conditions: peptide 10 micrograms per ml, 20 hours
# Excerpt: […] control wes vehicle only. […] Raw data were expressed as average tubule lenghs in pixels±standard deviation.
# MRSA = conditions: 5 micrograms per ml
# in vitro [11] = conditions: human, CEM-SS cells
# RAW 264.7 cells = experiment: Phagocytosis assay (Fluorescein-labeled Escherichia coli); conditions: peptide 10 micrograms per ml, flow cytometry
smiles,measurement,setting,value
"Nc1ccn([C@@H]2CS[C@H](CO)O2)c(=O)n1 [3TC, Lamivudine, reference compound]",% Cell viability,HepG2-2.2.15 cells,95.8%
"Cc1cn([C@H]2C[C@H](N=[N+]=[N-])[C@@H](CO)O2)c(=O)[nH]c1=O [AZT, zidovudine]",antiviral activity of positive control compounds (in words),HIV-1IIIB,expected levels of antiviral activity
same,% CPE reduction in HIV-1 infected CEM-SS cells,HIV-1IIIB,99%
Nc1nc(O)c2ncn(COC(CO)CO)c2n1 [Ganciclovir],% Cell viability,MRC-5 cells,100%
same,% plaque reduction,HCMV strain AD169,100%
same,antiviral activity of positive control compound (in words),HCMV strain AD169; assay validity statement,expected levels of antiviral activity
"CC(C)(C)NC(=O)[C@@H]1CN(Cc2cccnc2)CCN1C[C@@H](O)C[C@@H](Cc1ccccc1)C(=O)N[C@H]1c2ccccc2C[C@H]1O [Indinavir, indinavir]",antiviral activity of positive control compounds (in words),HIV-1IIIB,expected levels of antiviral activity
same,% CPE reduction in HIV-1 infected CEM-SS cells,HIV-1IIIB,100%
CC[C@H](C)[C@H](NC(=O)[C@H](CCC(=O)O)NC(=O)[C@H](CO)NC(=O)[C@@H](NC(=O)[C@@H](N)CO)C(C)C)C(=O)N[C@@H](CCC(N)=O)C(=O)N[C@@H](CC(C)C)C(=O)N[C@@H](CCSC)C(=O)N[C@@H](Cc1cnc[nH]1)C(=O)N[C@@H](CC(N)=O)C(=O)N[C@@H](CC(C)C)C(=O)NCC(=O)N[C@@H](CCCCN)C(=O)N[C@@H](Cc1cnc[nH]1)C(=O)N[C@@H](CC(C)C)C(=O)N[C@@H](CC(N)=O)C(=O)N[C@@H](CO)C(=O)N[C@@H](CCSC)C(=O)N[C@@H](CCC(=O)O)C(=O)N[C@@H](CCCN=C(N)N)C(=O)N[C@H](C(=O)N[C@@H](CCC(=O)O)C(=O)N[C@@H](Cc1c[nH]c2ccccc12)C(=O)N[C@@H](CC(C)C)C(=O)N[C@@H](CCCN=C(N)N)C(=O)N[C@@H](CCCCN)C(=O)N[C@@H](CCCCN)C(=O)N[C@@H](CC(C)C)C(=O)N[C@@H](CCC(N)=O)C(=O)N[C@@H](CC(=O)O)C(=O)N[C@H](C(=O)N[C@@H](Cc1cnc[nH]1)C(=O)N[C@@H](CC(N)=O)C(=O)N[C@@H](Cc1ccccc1)C(=O)O)C(C)C)C(C)C [pTH (1-34)],% inhibition of HBV replication in HEP G2 cells,[1],0.0%
same,"viability at 144 h, 10 micrograms per ml",[2],100%
same,viability at 144 h,in vitro [3],100%
same,% inhibition,Pseudomonas aeruginosa,0.0%
same,% inhibition,Streptococcus pneumoniae,0.0%
same,Cell cycle analysis G0/G1,A549 cells [4],59.1
same,Cell cycle analysis G2/M,A549 cells [4],7.5
same,Cell cycle analysis S,A549 cells [4],34.4
same,% of PHA induced control,[5],110.2%
same,% of SAC/IL2 induced control,[6],106.0%
same,% of induction,A549 cells [7],1.1%
same,% prevention of ceramide induced apoptosis,A549 cells [8],23.85%
same,IFNγ spleen cells; TH1 response (% of control),spleen cells,68.6 % of control
same,IL-2 spleen cells (% of control),spleen cells,180.4 % of control
same,IL-4 spleen cells; TH2 response (% of control),spleen cells,135.2 % of control
same,IL-5 spleen cells; TH2 response (% of control),spleen cells,85.9 % of control
same,TNF-a spleen cells; TH1 response (% of control),spleen cells,114.1 % of control
same,% of LPS induction,[9],117.1%
same,% inhibition of migration,[10],−4.0%
same,% inhibition of tube formation,HUVEC,28.0%
same,% inhibition,MRSA,0.0%
same,viability at 10 micrograms per ml,in vitro [11],99.4%
same,% plaque reduction,HCMV strain AD169,0.0%
same,% of control phagocytosis,RAW 264.7 cells,102.9%
same,% CPE reduction in HIV-1 infected CEM-SS cells,HIV-1IIIB,18.1%
